Experimental findings from US20200237764A1, “DRUG COMBINATIONS FOR TARGETING MULTIPLE MUTATIONS IN CANCER” (CureMatch, Inc., priority 2017, published 2020) are described below.

The assay deals with CAPAN2 cells. Put plainly: WST-1 colorimetric cell viability assay in CAPAN2 cells. Conditions: for IC20 / IC50: Homo sapiens, Capan-2, CAPAN2 cell survival; for cell death: at 300 nM, 48 hrs. Format: cell-based, human. As for the experimental part: The human pancreatic cancer cell line CAPAN2, was purchased from the American Type Culture Collection (ATCC; Manassas, Va.). Cells were grown in McCoy's Modified 5A media supplemented with 10% FCS, 1× penicillin/streptomycin and 1× amphotericin. For testing, cells were released from the dishes by treatment with PBS (without calcium) for ˜30 min followed by 0.25% trypsin-EDTA for 5 minutes at 37 C. Cells were collected in a 15 ml centrifuge tube and spun down in a clinical centrifuge for 5 min and then re-suspended in 1 ml of fresh media and the cells were counted using a hemocytometer. Cells (1×10^3-5×10^3) were then seeded into 96-well plates in 100 μL of media and the cells were incubated for 48 hours. After 48 hours, the media was replaced and the cells were re-incubated for another 24 hours prior to treatment with the drugs.
Stock drug solutions were prepared in complete media from master stock solutions prepared in DMSO according to the manufacturer's instructions. Using these stock solutions, 1:1, 2:1, 5:1, and 10:1 volume-volume (v/v) mixtures of regorafenib and trametinib were prepared. These mixtures were then two-fold serially diluted to generate a range of 20 concentrations in each case. The cells were incubated in drug mixtures for 48-72 hours before cell viability assay/assessment.
Cell viability was determined using a WST-1 colorimetric cell proliferation assay (Roche), according to manufacturer's instructions. The stable tetrazolium salt WST-1 is cleaved to a soluble formazan by a complex cellular mechanism that occurs primarily at the cell surface. This reduction is largely dependent on the glycolytic production of NAD(P)H in viable cells. Therefore, the amount of formazan dye formed, and estimated using a spectrophotometer (BIO-TEK 340, BIOTEK) directly correlates to the number of metabolically active cells in the culture. All testing points were done at least in triplicate.
(Formazan colour is commonly taken as a measure of viable cells.)

[1] abbreviates: monotherapy, two-fold serial dilution 2 nM to 1 mM, 48-72 hours.

Regarding `Nc1ccn([C@@H]2O[C@H](CO)[C@@H](O)C2(F)F)c(=O)n1` [gemcitabine], the “effect on CAPAN2 cell survival (in words)” value (CAPAN2 cells, 48-72 hours) is “little, if any, effect on cell survival”. For the same compound, the “maximum decrease in cell viability” value (CAPAN2 cells, concentration of 1 mM, 48-72 hours) is listed as −30%. Besides, under setting [1], the IC20 was 111000 nM.

As to `CC(=O)Nc1cccc(-n2c(=O)n(C3CC3)c(=O)c3c(Nc4ccc(I)cc4F)n(C)c(=O)c(C)c32)c1` [trametinib], where the note is “CAPAN2 cells”, the cell death is on record as −10%. Further, where the note is “100 μM to 0.2 nM, 48-72 hours”, the IC50 is 28 nM. Besides, the IC20 (48-72 hours) worked out at 4 nM.

As to `CNC(=O)c1cc(Oc2ccc(NC(=O)Nc3ccc(Cl)c(C(F)(F)F)c3)c(F)c2)ccn1` [regorafenib], for the setting “CAPAN2 cells, 48-72 hours”, the “effect on CAPAN2 cell survival (in words)” value is given as “significant reduction in cell survival”. For the setting “CAPAN2 cells”, the cell death was −2%. Also, the midpoint of inhibition (2 nM to 1 mM), the IC50, lay at 7100 nM. In addition, under setting [1], the IC20 amounted to 2000 nM.

Broadly, the IC20 is the point of the concentration-response curve where the effect stands at 20%. The IC50 is the concentration needed to halve the response being measured.
